In patent publication US11173143B2, “Composition for decreasing serum uric acid level” (ASAHI GROUP HOLDINGS, LTD., priority 2017, dated 2021):

System: serum uric acid
Experiment: Serum uric acid level after 8 weeks of daily intake in subjects with hyperuricemia
Assay type: in vivo, human
Settings: for Serum uric acid level, After 8 weeks: daily intake
Description: Tests were conducted with subjects with hyperuricemia having high serum uric acid levels (7.1 mg/dl or higher) after their written informed consents were obtained. […] Their serum uric acid levels were measured before the intake and after 8 weeks of the intake. A sign test was used as the test of significance.

## NCC(=O)O [Gly, glycine]
Average of the group (n=4)
  Amount of change: -0.13 mg/dL
  Serum uric acid level, Before start of intake: 7.73 mg/dL
  Serum uric acid level, After 8 weeks: 7.60 mg/dL
Subject A
  Amount of change: 0.4 mg/dL
  Serum uric acid level, Before start of intake: 8.9 mg/dL
  Serum uric acid level, After 8 weeks: 9.3 mg/dL
Subject B
  Amount of change: 0.0 mg/dL
  Serum uric acid level, Before start of intake: 7.8 mg/dL
  Serum uric acid level, After 8 weeks: 7.8 mg/dL
Subject C
  Amount of change: -0.5 mg/dL
  Serum uric acid level, Before start of intake: 7.1 mg/dL
  Serum uric acid level, After 8 weeks: 6.6 mg/dL
Subject D
  Amount of change: -0.4 mg/dL
  Serum uric acid level, Before start of intake: 7.1 mg/dL
  Serum uric acid level, After 8 weeks: 6.7 mg/dL
Subjects with hyperuricemia
  Change of serum uric acid levels after 8 weeks of continuous intake (in words): slightly decreased after 8 weeks of continuous intake, but the decreases were not significant
